Measurements from ChEMBL document CHEMBL1201862, “PubChem BioAssay data set” (2004).
Values joined by “and” are separate entries in the source; they are usually repeats but may differ in a detail not shown here. Identical values can stand only once. One block for each molecule: values may come before it. Active and inactive are the calls of the source.

Experiments:
A-375 [1] = assay: MITF: Counter assay: A375 proliferation Measured in Cell-Based System Using Plate Reader - 2084-03_Inhibitor_Dose_DryPowder_Activity. [Related pubchem assays (depositor defined):AID488944]; type: functional; conditions: Homo sapiens
A-375 [2] = assay: proliferation inhibition in MITF-low A375 cells – cell-based, cherry-pick samples, set 2, counter-screen for MITF modulator project, dose response (AID 540335); type: functional; conditions: Homo sapiens
[3] = molecular target: T1, Aryl hydrocarbon receptor (Homo sapiens, UniProt P35869); conditions: Potency;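 also: confirmatory quantitative high-throughput screen measuring activation of the AhR signaling pathway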
T1 sequence (P35869 whole entry): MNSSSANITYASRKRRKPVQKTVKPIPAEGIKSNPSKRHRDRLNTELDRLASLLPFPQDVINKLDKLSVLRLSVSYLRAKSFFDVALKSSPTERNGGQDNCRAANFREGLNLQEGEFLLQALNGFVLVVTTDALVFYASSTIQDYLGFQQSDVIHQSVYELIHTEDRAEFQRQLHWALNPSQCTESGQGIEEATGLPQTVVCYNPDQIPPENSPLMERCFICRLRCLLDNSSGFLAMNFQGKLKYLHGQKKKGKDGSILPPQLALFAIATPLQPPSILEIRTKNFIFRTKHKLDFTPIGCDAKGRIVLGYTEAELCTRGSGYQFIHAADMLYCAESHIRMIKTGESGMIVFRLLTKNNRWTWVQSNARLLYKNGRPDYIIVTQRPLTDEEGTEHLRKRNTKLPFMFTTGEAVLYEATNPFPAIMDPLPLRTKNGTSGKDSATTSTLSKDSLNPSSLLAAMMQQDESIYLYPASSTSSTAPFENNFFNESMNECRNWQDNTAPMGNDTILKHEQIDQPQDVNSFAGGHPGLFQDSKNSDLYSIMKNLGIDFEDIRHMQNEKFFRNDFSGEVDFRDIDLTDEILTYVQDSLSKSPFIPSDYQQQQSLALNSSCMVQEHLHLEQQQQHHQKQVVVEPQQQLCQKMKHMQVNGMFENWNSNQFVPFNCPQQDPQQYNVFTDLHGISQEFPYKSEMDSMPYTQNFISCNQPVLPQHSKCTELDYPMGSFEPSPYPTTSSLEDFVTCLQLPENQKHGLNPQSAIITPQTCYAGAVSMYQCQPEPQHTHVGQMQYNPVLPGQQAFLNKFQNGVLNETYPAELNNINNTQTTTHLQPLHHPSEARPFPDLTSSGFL

[4] = molecular target: DNA dC->dU-editing enzyme APOBEC-3A (Homo sapiens, UniProt P31941); assay: Dose Response confirmation of small molecule APOBEC3A DNA Deaminase Inhibitors via a fluorescence-based single-stranded DNA deaminase assay. [Related pubchem assays (depositor defined):AID493011, AID493024]; type: functional
[5] = molecular target: DNA dC->dU-editing enzyme APOBEC-3G (Homo sapiens, UniProt Q9HC16); type: functional;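 also: Dose-response counterscreen measuring inhibition of APOBEC3G DNA deaminase activity, run while confirming APOBEC3A inhibitors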
[6] = molecular target: T2, Carboxy-terminal domain RNA polymerase II polypeptide A small phosphatase 1 (Homo sapiens, UniProt Q9GZU7); assay: CTDSP1 inhibitors, concentration-response, biochemical, absorbance readout, ultra-high-throughput screen actives (AID 540297); type: functional
T2 sequence (Q9GZU7 whole entry): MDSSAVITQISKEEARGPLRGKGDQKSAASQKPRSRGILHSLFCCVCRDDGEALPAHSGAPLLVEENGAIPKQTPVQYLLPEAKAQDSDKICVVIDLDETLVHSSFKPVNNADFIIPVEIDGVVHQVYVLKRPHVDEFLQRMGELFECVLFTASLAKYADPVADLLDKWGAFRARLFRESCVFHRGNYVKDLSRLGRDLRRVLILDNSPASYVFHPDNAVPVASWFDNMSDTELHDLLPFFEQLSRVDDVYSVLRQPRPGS

[7] = molecular target: Ras and Rab interactor 1/Tyrosine-protein kinase ABL1 (Homo sapiens, UniProt P00519+Q13671); type: functional;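 also: biochemical TR-FRET dose-response test measuring inhibition of binding between Rin1 and Abl proteins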
[8] = molecular target: T3, Ubiquitin-conjugating enzyme E2 N (Homo sapiens, UniProt P61088); type: functional;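 also: Dose-response confirmation in a TR-FRET assay detecting UBC13-driven polyubiquitin chain formation, inhibition measured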
T3 sequence (P61088 whole entry): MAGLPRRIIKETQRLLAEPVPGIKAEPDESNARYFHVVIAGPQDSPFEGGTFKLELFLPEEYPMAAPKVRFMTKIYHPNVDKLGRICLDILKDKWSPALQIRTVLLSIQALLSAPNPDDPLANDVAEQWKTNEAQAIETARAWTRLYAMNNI

HEK293 = assay: EBV LMP1 TES2 canonical NF-kB signalling blockers – cell-based, HEK293, luciferase, cherry-pick, dose response (AID 588343); type: functional; conditions: Homo sapiens
[9] = NIH-3T3 fibroblast cytotoxicity, dose response, cytotoxicity control, cell-based, fluorescence, Alamar Blue, secondary assay (AID 2327); type: functional;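 also: NIH-3T3 mouse fibroblasts cultured with fluconazole at 8 µg/mL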
[10] = fluconazole-exposed Candida albicans growth modulators – fluorescence, retest, confirmation (AID 2467); type: functional, cell-based
INS1 = assay: INS-1E survival protection against cytokine death – cell-based, luminescence, retest, dose response (AID 449756); type: functional; conditions: Rattus norvegicus;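 also: cell death triggered by IL-1 beta plus TNF-alpha plus IFN-gamma mixture; protective hits raise ATP signal compared with cytokine alone wells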
Protein Wnt-3a = Protein Wnt-3a (Mus musculus, UniProt P27467); assay: antagonism of Wnt3a pathway luciferase reporter – Wnt-LIGHT cells, luminescence, selectivity assay for Gli-SUFU antagonist project, dose response (AID 651570); type: functional; conditions: read-out: IC50_Mean;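 also: Wnt-LIGHT reporter cells stimulated with conditioned medium from Wnt3a-producing cells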
[11] = viability of uninfected HEp-2 cells – cell-based, HTS, cytotoxicity control for RSV inhibitor project, dose response (AID 2410); type: functional; conditions: human respiratory syncytial virus
[12] = molecular target: T4, Apoptotic protease-activating factor 1 (Homo sapiens, UniProt O14727); type: functional
T4 sequence (O14727 whole entry): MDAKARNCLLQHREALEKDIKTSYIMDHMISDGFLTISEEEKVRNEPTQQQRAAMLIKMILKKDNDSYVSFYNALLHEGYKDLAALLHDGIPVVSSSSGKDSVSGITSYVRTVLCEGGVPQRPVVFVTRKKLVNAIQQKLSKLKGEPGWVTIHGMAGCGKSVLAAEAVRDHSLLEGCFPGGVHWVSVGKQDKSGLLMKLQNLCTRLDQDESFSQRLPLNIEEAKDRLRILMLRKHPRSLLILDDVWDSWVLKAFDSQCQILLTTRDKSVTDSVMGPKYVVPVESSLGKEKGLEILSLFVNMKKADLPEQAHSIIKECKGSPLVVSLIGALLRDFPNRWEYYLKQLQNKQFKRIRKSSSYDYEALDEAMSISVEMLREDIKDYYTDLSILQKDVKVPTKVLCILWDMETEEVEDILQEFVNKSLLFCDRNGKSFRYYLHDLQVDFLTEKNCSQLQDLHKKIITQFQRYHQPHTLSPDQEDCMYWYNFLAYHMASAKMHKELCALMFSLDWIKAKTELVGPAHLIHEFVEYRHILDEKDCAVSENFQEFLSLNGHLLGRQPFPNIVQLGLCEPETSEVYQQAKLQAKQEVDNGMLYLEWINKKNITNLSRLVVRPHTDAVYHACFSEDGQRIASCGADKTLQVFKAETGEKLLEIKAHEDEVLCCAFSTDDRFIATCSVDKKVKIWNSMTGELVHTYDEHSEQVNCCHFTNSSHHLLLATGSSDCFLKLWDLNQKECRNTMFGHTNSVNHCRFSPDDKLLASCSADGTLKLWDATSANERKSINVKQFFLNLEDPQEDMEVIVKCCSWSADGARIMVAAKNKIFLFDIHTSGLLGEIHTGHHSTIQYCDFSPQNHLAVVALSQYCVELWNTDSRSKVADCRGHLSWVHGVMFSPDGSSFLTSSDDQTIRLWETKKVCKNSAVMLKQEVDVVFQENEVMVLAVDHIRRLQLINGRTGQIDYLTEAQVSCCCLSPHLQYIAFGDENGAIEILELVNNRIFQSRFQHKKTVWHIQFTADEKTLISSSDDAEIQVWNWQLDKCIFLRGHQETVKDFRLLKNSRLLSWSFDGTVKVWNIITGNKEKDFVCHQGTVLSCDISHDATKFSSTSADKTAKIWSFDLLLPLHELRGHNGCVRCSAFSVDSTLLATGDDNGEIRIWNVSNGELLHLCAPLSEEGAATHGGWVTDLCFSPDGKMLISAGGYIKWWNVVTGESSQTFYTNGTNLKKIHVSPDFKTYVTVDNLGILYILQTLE

[13] = molecular target: T5, DNA repair and recombination protein RAD54-like (Homo sapiens, UniProt Q92698); assay: RAD54 Holliday junction migration blockers – biochemical, fluorescence, cherry-picked samples, dose series, confirmation (AID 651657); type: functional
T5 sequence (Q92698 whole entry): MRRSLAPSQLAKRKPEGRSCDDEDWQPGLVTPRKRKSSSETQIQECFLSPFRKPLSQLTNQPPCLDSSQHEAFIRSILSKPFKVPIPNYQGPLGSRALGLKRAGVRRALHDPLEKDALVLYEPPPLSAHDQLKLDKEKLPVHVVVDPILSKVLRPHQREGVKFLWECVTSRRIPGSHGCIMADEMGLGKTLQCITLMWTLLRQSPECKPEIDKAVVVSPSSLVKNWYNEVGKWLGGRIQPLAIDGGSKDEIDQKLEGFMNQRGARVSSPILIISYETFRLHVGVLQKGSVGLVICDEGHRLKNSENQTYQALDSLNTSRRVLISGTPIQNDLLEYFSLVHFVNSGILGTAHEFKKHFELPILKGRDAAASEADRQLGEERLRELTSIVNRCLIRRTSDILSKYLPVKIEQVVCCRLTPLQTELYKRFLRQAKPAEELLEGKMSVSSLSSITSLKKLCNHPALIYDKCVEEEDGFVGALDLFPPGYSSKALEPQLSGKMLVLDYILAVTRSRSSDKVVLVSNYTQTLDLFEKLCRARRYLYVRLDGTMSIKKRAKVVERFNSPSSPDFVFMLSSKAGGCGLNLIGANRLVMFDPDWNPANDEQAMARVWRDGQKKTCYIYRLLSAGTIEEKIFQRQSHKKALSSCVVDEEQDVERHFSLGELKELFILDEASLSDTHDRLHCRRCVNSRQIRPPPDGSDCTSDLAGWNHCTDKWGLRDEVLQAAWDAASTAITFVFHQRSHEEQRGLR

P388/ADR = assay: cells; type: functional; conditions: Mus musculus
SN12K1 = assay: cells; type: functional; conditions: Homo sapiens
P388 = assay: cells; type: functional; conditions: Mus musculus
[14] = activation of miR-122 Renilla sensor silencing – cell-based, Huh7 psiCHECK-miR122, Renilla luciferase, cherry-picked, dose response (AID 651956); type: functional;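 also: huh7 hepatoma cells stably carrying a psiCHECK-2 miR-122 sensor plasmid; renilla luciferase signal reporting endogenous miR-122 activity after 48 h compound exposure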
Cytochrome P450 3A4 = Cytochrome P450 3A4 (Homo sapiens, UniProt P08684); conditions: Potency;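 also: confirmatory qHTS run detecting inhibitors and substrates of CYP3A4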
Sequence of Cytochrome P450 3A4 (P08684 whole entry): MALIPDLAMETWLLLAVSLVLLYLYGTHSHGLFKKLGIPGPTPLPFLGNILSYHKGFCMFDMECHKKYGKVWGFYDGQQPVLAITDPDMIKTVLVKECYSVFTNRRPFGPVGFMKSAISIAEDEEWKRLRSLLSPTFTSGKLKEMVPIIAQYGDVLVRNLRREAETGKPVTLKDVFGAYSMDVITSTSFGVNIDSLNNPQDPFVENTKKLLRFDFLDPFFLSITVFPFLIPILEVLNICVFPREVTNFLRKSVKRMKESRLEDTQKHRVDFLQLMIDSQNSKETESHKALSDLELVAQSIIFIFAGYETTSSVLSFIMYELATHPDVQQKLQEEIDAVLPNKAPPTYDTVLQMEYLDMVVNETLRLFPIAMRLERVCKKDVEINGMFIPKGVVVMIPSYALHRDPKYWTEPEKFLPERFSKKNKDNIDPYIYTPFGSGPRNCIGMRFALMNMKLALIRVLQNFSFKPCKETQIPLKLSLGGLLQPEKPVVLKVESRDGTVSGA

Sequence of Ras and Rab interactor 1/Tyrosine-protein kinase ABL1 (P00519 whole entry): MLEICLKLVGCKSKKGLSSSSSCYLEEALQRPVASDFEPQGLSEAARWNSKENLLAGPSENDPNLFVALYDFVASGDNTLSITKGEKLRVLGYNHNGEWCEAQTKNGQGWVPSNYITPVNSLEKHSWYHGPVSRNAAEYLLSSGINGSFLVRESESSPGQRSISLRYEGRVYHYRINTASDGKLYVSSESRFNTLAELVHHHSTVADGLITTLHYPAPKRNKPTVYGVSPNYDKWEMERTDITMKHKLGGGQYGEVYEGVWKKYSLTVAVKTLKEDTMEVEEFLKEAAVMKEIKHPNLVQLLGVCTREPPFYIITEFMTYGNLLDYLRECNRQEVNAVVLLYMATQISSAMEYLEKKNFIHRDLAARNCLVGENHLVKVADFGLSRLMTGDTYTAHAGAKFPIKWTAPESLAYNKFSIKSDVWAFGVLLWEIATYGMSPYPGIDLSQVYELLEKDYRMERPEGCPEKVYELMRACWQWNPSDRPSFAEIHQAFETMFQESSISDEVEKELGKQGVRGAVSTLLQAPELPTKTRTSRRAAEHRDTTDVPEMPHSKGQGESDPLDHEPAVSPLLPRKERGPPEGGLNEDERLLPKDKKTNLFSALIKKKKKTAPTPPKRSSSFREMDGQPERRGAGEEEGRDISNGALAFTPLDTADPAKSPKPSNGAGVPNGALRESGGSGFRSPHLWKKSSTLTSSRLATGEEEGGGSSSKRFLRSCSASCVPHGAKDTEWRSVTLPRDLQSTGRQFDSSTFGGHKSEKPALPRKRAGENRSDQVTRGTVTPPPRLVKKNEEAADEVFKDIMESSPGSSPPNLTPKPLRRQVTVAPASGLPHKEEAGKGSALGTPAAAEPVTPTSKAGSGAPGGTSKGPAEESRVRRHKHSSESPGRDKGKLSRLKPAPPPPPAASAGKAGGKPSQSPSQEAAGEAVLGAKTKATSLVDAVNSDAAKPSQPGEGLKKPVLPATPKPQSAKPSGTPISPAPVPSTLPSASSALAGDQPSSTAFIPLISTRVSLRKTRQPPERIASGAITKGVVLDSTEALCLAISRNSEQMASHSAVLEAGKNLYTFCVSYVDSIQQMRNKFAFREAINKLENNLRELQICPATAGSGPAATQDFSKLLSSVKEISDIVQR
Sequence of Ras and Rab interactor 1/Tyrosine-protein kinase ABL1 (Q13671 whole entry): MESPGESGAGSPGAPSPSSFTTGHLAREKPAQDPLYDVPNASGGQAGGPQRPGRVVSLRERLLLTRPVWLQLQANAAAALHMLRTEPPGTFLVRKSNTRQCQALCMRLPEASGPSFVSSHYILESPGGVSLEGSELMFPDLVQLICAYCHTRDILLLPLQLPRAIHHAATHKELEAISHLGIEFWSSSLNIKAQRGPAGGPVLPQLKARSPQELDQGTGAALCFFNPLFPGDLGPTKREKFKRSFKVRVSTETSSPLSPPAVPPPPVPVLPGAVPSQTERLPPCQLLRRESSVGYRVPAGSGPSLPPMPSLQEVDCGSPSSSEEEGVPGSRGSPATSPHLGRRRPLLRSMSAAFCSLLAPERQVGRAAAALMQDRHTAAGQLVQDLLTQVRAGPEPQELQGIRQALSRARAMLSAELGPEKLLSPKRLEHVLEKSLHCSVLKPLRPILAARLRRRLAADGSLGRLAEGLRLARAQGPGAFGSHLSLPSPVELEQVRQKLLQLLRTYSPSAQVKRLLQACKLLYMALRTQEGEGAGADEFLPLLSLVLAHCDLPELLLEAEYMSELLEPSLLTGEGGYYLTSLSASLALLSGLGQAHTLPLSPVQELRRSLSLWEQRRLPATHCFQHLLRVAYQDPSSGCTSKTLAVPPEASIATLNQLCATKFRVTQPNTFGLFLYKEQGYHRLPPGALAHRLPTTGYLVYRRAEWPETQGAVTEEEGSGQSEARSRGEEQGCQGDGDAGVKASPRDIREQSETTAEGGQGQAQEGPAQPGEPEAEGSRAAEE
Sequence of Protein Wnt-3a (P27467 whole entry): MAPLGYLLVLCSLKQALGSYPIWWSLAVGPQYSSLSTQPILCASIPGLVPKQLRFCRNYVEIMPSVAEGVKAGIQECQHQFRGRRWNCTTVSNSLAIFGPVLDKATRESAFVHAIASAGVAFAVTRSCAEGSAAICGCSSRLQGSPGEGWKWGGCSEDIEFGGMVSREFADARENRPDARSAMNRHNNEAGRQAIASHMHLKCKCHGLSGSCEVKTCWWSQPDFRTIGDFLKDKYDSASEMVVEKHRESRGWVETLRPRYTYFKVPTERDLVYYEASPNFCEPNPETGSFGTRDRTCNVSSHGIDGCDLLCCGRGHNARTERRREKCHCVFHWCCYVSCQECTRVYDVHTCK
Sequence of DNA dC->dU-editing enzyme APOBEC-3G (Q9HC16 whole entry, the tested form may be a part): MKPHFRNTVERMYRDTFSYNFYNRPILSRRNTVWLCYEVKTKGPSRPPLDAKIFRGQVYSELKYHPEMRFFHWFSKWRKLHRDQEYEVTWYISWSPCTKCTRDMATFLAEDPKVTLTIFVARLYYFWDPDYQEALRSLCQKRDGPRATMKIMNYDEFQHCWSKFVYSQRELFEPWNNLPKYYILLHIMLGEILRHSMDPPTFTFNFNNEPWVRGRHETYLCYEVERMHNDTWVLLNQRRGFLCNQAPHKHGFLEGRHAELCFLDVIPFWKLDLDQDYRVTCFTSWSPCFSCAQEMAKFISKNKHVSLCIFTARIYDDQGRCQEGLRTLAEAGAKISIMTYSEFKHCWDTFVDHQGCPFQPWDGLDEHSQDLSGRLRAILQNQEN
Sequence of DNA dC->dU-editing enzyme APOBEC-3A (P31941 whole entry): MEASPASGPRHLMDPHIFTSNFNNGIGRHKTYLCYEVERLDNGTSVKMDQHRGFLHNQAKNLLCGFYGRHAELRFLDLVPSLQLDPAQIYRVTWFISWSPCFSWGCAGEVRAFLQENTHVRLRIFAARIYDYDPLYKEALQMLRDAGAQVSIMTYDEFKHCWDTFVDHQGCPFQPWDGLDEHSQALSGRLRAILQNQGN

Compound: Clc1ccc(-c2noc(CN3CCOCC3)n2)cc1
- AC50 (A-375 [1]): > 35 µM (active)
- AC50 (A-375 [2]): > 35 µM (active)

- AC50 [3]: 56.2 µM (inconclusive)
Compound: Cc1cccc2sc(N)nc12

Compound: CCN(CC)P(c1n(C)cc[n+]1C)N(CC)CC
- IC50 [4]: 2.47 µM (active)
- IC50 [5]: 3.2 µM (active)
- IC50 [6]: 3.52 µM (active)

- IC50 [7]: 25.7 µM (inactive)
Compound: O=C(CC1SCCNC1=O)Nc1ccc(F)c(Cl)c1 (stereo not given)

Compound: COc1ccc(C(=O)Nn2c(SCC(=O)c3ccc(Cl)cc3)nc3ccccc3c2=O)cc1
- IC50 [8]: > 20 µM (inactive)
- AC50 (HEK293): 8.36 µM (active)

Compound: Cc1csc2ncnc(NCCc3ccccn3)c12
- EC50 [9]: > 160 µM (inactive)
- EC50 [10]: 1.92 µM (active)
- AC50 (INS1): 4.39 µM (active)
- IC50 (Protein Wnt-3a): 0.887 µM (active)

- IC50 [12]: 50.7 µM (active)
Compound: CC(=O)c1ccc(N2CCN(S(=O)(=O)c3ccc4c5c3CC(=O)N5CC(C)S4)CC2)cc1 (stereo not given)
- CC50 [11]: 17 µM (active)

Compound: O=C(CNC(=O)c1ccc(Br)cc1)c1ccccc1
- AC50 (A-375 [1]): > 35 µM (active)
- AC50 (A-375 [2]): > 35 µM (active)

- IC50 [6]: 6.53 µM (active)
Compound: CCOC(=O)C[n+]1c2n(c3ccccc31)CC(O)CS2 (stereo not given)

- IC50 [7]: 25.3 µM (inactive)
Compound: CCOC(=O)c1ccc(NC(=O)COc2ccccc2CNCCO)cc1

- IC50 [7]: 0.659 µM (active)
Compound: COc1cc(C(=O)Nc2ccc(O)cc2C(=O)O)ccc1OC(C)=O

- AC50 [13]: 37.3 µM (active)
Compound: Nc1c(C(=O)NCCN2CCOCC2)c2nc3ccccc3nc2n1-c1ccc2c(c1)OCO2

Compound: COc1nc(NC2CCCCC2)nc(NC(C)(C)C)n1
- AC50 (A-375 [1]): > 35 µM (active)
- AC50 (A-375 [2]): > 35 µM (active)

Compound: CCOC(=O)/C(=C\c1ccccc1)C(=O)CCN1CCOCC1
- GI50 (P388/ADR): 1.13 µM (inactive)
- GI50 (SN12K1): 5.53 µM (inactive)
- GI50 (P388): 0.627 µM (active)

Compound: O=C(/C=C\c1ccc(/C=C/C(=O)Nc2cccc(C3=NCCCN3)c2)cc1)Nc1cccc(C2=NCCCN2)c1
- GI50 (P388/ADR): 79.3 µM (inactive)
- GI50 (SN12K1): > 100 µM (inactive)
- GI50 (P388): 0.303 µM (active)

Compound: COC(=O)[C@]12CC=C3O[C@@H]4OC5(CCCCC5)O[C@@H]4[C@H]3C1C(=O)C=CC2=O (stereo not given in full)
- GI50 (P388/ADR): 2.96 µM (inactive)
- GI50 (SN12K1): 16 µM (inactive)
- GI50 (P388): 2.81 µM (inactive)

Compound: CN1C(=O)c2cc(NC(=O)Cc3ccccc3)ccc2OC[C@@H]2O[C@@H](CC(=O)NCc3ccc(Cl)cc3)CC[C@H]21
- AC50 [14]: 41.4 µM (active)

Compound: COc1cc(C2c3cc4c(cc3[C@@H](Nc3ccc5c(c3)OCCO5)C3COC(=O)[C@H]23)OCO4)cc(OC)c1O (stereo not given in full)
- GI50 (P388/ADR): 0.229 µM (active)
- GI50 (SN12K1): 0.274 µM (active)
- GI50 (P388): < 0.01 µM (active)

- AC50 [13]: 92.4 µM (active)
Compound: Nc1ccc(-c2nc3c(ccc4ccccc43)[nH]2)cc1

- AC50 (Cytochrome P450 3A4): 20 µM (inconclusive)
Compound: Nc1cc(Cl)c(N)c(Cl)c1
- AC50 [3]: 31.6 µM (inconclusive) and 25.1 µM (inconclusive)

Compound: Cc1ccc(N=C=O)cc1N=C=O [TOLUENE DIISOCYANATE]
- AC50 [3]: 50.1 µM (inconclusive)
